Laboratory results as given in ChEMBL document CHEMBL5604063, “ASAP - DENV-2 NS2B-NS3 protease fluorescence dose response” (2024).
Where “and” joins values, the source holds several entries; their conditions need not be identical. Equal values may be shown once.

Experiments:
Genome polyprotein [1] = molecular target: T1, Genome polyprotein (dengue virus type 2, UniProt P29990); type: functional, Thailand/16681/1984
Genome polyprotein [2] = molecular target: T1, Genome polyprotein; type: functional, Thailand/16681/1984; remark: listed apart in the source

T1 sequence (P29990 1346-1475 limits assumed): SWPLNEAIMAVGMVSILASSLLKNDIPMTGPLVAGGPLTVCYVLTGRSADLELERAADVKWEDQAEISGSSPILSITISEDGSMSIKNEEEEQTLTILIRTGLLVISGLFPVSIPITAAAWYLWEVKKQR
T1 sequence (P29990 1476-2093 limits assumed): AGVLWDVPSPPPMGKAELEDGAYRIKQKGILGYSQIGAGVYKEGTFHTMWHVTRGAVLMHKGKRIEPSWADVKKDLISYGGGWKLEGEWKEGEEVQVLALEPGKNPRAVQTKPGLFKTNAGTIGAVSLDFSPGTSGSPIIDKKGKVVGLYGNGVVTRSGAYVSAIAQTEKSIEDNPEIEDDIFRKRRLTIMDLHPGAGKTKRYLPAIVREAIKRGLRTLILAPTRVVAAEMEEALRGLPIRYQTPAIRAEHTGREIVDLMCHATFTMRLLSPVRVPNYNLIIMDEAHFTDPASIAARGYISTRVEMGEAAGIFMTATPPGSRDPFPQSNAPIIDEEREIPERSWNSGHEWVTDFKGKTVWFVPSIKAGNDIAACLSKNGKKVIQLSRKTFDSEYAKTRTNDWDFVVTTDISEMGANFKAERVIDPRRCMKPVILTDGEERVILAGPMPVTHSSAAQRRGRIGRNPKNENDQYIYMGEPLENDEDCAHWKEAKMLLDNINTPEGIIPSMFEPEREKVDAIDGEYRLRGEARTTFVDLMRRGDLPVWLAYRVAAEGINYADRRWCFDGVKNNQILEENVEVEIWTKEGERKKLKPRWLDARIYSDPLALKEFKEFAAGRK

Compound | IC50 (Genome polyprotein [1]) | IC50 (Genome polyprotein [2])
N#C[C@]1(Nc2ccc3c(c2)CNC3)C(=O)Nc2ccccc21 | > 99.5 µM | > 100 µM
CC(C)c1cc(-c2ccc3[nH]c(C(=O)O)cc3c2)cc(S(N)(=O)=O)c1 | > 99.5 µM | > 100 µM
CCc1cc(C(=O)Nc2ccc3c(c2)CNC3)sc1-c1ccc(Cl)cc1 | > 99.5 µM | > 100 µM
CC(C)(C)OC(=O)NCc1cc(NC(=O)c2cc(Cl)cc(NC(=O)OCc3ccccc3)c2)cc(-c2nn[nH]n2)c1 | 7.46 µM | 10.7 µM
NCCCCc1ccc(NC(=O)c2cc(Cl)cc3[nH]ncc23)cc1 | > 99.5 µM | > 100 µM
O=C(Nc1ccc2c(c1)CNCC2)c1cc(Cl)cc2[nH]ncc12 | > 99.5 µM | > 100 µM
Cc1c(C(=O)Nc2cc(CCCN)ccn2)cc(C(C)C)n1C | > 99.5 µM | > 100 µM
O=C(O)c1cc2cc(-c3cccc([C@H]4CNCCO4)c3)ccc2[nH]1 | > 99.5 µM | > 100 µM
CC(C)Cc1nc2c(C(=O)Nc3ccc4c(c3)CNC4)cc(Br)cc2[nH]1 | 56.2 µM | > 100 µM
O=C(O)Cc1c[nH]c2cc(-c3cc(Cl)cc(NC(=O)OCc4ccccc4)c3)ccc12 | 13.3 µM | 9.67 µM
CC(C)(C)c1cc(Br)cc(C(=O)Nc2ccc3c(c2)CNC3)c1 | > 99.5 µM | > 100 µM
O=C(Nc1ccc2c(c1)CNC2)c1cc(Cl)cc(-n2cccc2)c1 | > 99.5 µM | > 100 µM
Cc1oc2nc(-c3cc(Cl)cc(NC(=O)OCc4ccccc4)c3)ccc2c1C(=O)O | 16.6 µM | 13.7 µM
CN1Cc2ccc(NC(=O)c3cc(Cl)cc4[nH]ncc34)cc2C1 | > 99.5 µM | > 100 µM
Cc1cc(CN)cc(NC(=O)c2cc(Cl)cc3[nH]ncc23)c1 | 98.3 µM | 85.4 µM
O=C(O)C[C@H]1CN(c2ccc(-c3cc(Cl)cc(NC(=O)OCc4ccccc4)c3)cn2)CCO1 | 35.2 µM | 22.2 µM
CC(C)NC(=O)[C@H](Nc1ccc2c(c1)CNC2)c1cc(Cl)cc2[nH]ncc12 | 64 µM and 37.2 µM and 98.4 µM | 96.5 µM and 41.2 µM and > 100 µM and 26.4 µM
O=C1CCc2c(cc(Cl)cc2-c2ccc3[nH]c(C(=O)O)cc3c2)N1 | > 99.5 µM | > 100 µM
O=C(Nc1ccc2c(c1)CNC2)c1cc(Br)cc2ccccc12 | > 99.5 µM | > 100 µM
NCCc1ccc(NC(=O)c2cc(Cl)cc3[nH]ncc23)cc1 | > 99.5 µM | > 100 µM
Cc1c(C(=O)NCc2ccc(CN)cc2)cc(C2CC2)n1C | > 99.5 µM | > 100 µM
O=C(Nc1cc(Cl)cc(-c2cnn(Cc3ccc(C(=O)O)cc3)c2)c1)OCc1ccccc1 | 18.2 µM | 8.1 µM

Compound | IC50 (Genome polyprotein [1]) | IC50 (Genome polyprotein [2])
C=C1C[C@H](c2cc(Cl)cc(NC(=O)OCc3ccccc3)c2)[C@@H](c2cccc(-c3nn[nH]n3)c2)C1 | 6.29 µM | 5.18 µM
O=C(Nc1ccc2c(c1)CNC2)c1cc(Cl)cc(C2CC2)c1 | > 99.5 µM | > 100 µM
NCc1cc(NC(=O)c2cc(Cl)cc(NC(=O)OCc3ccccc3)c2)cc(-c2csc(CC(=O)O)c2)c1 | 64.7 µM | > 100 µM
O=C(Nc1ccc2c(c1)CNC2)c1cc(Cl)cc2c1CCC2 | > 99.5 µM | > 100 µM
Cc1c(C(=O)Nc2cc(-c3ccccn3)c(Br)cn2)cc(C2CC2)n1C | > 99.5 µM | > 100 µM
O=C(O)c1cc2cc(-c3cc(Cl)cc4ncccc34)ccc2[nH]1 | 41.5 µM | 50.9 µM
O=C(O)c1cc2cccc(Cc3c[nH]c4ccc(Cl)cc34)c2[nH]1 | 52.1 µM | 21.6 µM
O=C(Nc1ccc2c(c1)CNC2)c1n[nH]c(=O)c2ccccc12 | 36.8 µM | > 100 µM
O=C1OCc2ccc(NC(=O)c3cc(Cl)cc4[nH]ncc34)cc21 | > 99.5 µM | > 100 µM
Clc1ccc2[nH]cc(Cc3ccc4c(c3)CNC4)c2c1 | > 99.5 µM | > 100 µM
O=C(Nc1ccc2c(c1)CNC2)c1n[nH]c2ncc(Br)cc12 | > 99.5 µM | > 100 µM
Cc1c(C(=O)Nc2cc(-c3cnn(C)c3)ccn2)cc(C2CC2)n1C | > 99.5 µM | > 100 µM
N#Cc1cc(-c2ccc3[nH]c(C(=O)O)cc3c2)c2nc[nH]c2c1 | > 99.5 µM | > 100 µM
CCCc1sc(C(=O)Nc2ccc3c(c2)CNC3)cc1CC | > 99.5 µM | > 100 µM
O=C(Nc1ccc2c(c1)CNC2)c1ccccn1 | > 99.5 µM | > 100 µM
N#Cc1ccc(Cl)c(C(=O)Nc2ccc3c(c2)CNC3)c1 | > 99.5 µM | > 100 µM
O=C(Nc1ccc2c(c1)CNC2)c1cc(Br)cc2[nH]c(-c3ccccc3)nc12 | 2.73 µM and 2.34 µM | 5.95 µM and 6.13 µM
O=C(O)c1nc(Cc2c[nH]c3ccc(Cl)cc23)c2ccccn12 | > 99.5 µM | > 100 µM
Cc1cc(CC(=O)O)ccc1Cc1c[nH]c2ccc(Cl)cc12 | > 99.5 µM | > 100 µM
O=C(Nc1ccc2c(c1)CNC2)c1ccnc(CO)c1 | > 99.5 µM | > 100 µM
Cc1c(C(=O)Nc2cc(C(=O)N(C)C)ccn2)cc(C2CC2)n1C | > 99.5 µM | > 100 µM
NCc1cc(NC(=O)c2cc(Cl)cc(NC(=O)OCc3ccccc3)c2)cc(-c2cccc(CC(=O)O)c2)c1 | > 99.5 µM | > 100 µM

Compound | IC50 (Genome polyprotein [1]) | IC50 (Genome polyprotein [2])
O=C(Nc1ccc([C@H]2CCNC2)cc1)c1cc(Cl)cc2[nH]ncc12 | 87.8 µM | 97.3 µM
C=CC[C@H](Nc1ccc2c(c1)CNC2)c1cc(Cl)cc2[nH]ncc12 | 14 µM and 53.1 µM | > 100 µM
O=C(Nc1ccc2c(c1)CNC2)c1cccnc1 | > 99.5 µM | > 100 µM
O=C(O)c1cc2cc(-c3cccc([C@H]4COCCN4)c3)ccc2[nH]1 | > 99.5 µM | > 100 µM
CC(C)c1cc(Br)cc(C(=O)Nc2ccc3c(c2)CNC3)c1 | > 99.5 µM | > 100 µM
O=C(O)c1cc2cc(-c3cc(Cl)c4[nH]c(=O)oc4c3)ccc2[nH]1 | 47.3 µM | 63.2 µM
O=C(Nc1ccc2c(c1)CNC2)c1cccc2[nH]ncc12 | > 99.5 µM | > 100 µM
N[C@H]1CC[C@H](c2ccc(NC(=O)c3cc(Cl)cc4[nH]ncc34)cc2)C1 | > 99.5 µM | > 100 µM
CNC(=O)[C@]1(Nc2ccc3c(c2)CNC3)C(=O)Nc2ccccc21 | > 99.5 µM | > 100 µM
Cc1ccc(C(C)C)c(C(=O)Nc2ccc3c(c2)CNC3)c1 | > 99.5 µM | > 100 µM
O=C(Nc1ccc2c(c1)CNC2)c1cc(Br)cc2c1OCO2 | > 99.5 µM | > 100 µM
O=C(O)COc1cc2c(cc1Cc1c[nH]c3ccc(Cl)cc13)OCO2 | > 99.5 µM | 89 µM
NCCCc1ccnc(NC(=O)c2csc(C3CC3)n2)c1 | > 99.5 µM | > 100 µM
O=C(O)c1nccn2ncc(Cc3c[nH]c4ccc(Cl)cc34)c12 | > 99.5 µM | > 100 µM
Cc1ccc(-c2cc(CN)cc([C@@H]3C[C@H]3c3cc(Cl)cc(NC(=O)OCc4ccccc4)c3)c2)cn1 | 31.5 µM | > 100 µM
O=C(Nc1ccc2c(c1)CNC2)[C@H]1CCc2ccccc21 | > 99.5 µM | > 100 µM
O=C(Nc1ccc2c(c1)CNC2)c1ccncc1 | > 99.5 µM | > 100 µM
COC(=O)c1cc(Br)cc2c(Cc3ccc(-c4nnn[nH]4)cc3)c[nH]c12 | 20.3 µM | 13.6 µM
O=C1Cc2cc(NC(=O)c3cc(Cl)cc4[nH]ncc34)ccc2N1 | > 99.5 µM | > 100 µM
O=C(Nc1ccc2c(c1)OCO2)c1cc(Cl)cc2[nH]ncc12 | > 99.5 µM | > 100 µM
Cc1c(C(=O)O)sc2ncc(Cc3c[nH]c4ccc(Cl)cc34)cc12 | 46.7 µM | 25.3 µM
O=C(Nc1ccc(C2CNC2)cc1)c1cc(Cl)cc2[nH]ncc12 | > 99.5 µM | > 100 µM

Compound | IC50 (Genome polyprotein [1]) | IC50 (Genome polyprotein [2])
Cn1ncc2c(C(=O)Nc3ccc4c(c3)CNC4)cc(Br)cc21 | > 99.5 µM | > 100 µM
O=C(O)[C@H]1C[C@H](n2ccc(Cc3c[nH]c4ccc(Cl)cc34)n2)C1 | > 99.5 µM | > 100 µM
CNC(=O)[C@]1(Nc2ccc3c(c2)CNC3)CCc2ccc(Cl)cc21 | > 99.5 µM | > 100 µM
CCc1nc2c(C(=O)Nc3ccc4c(c3)CNC4)cc(Br)cc2[nH]1 | 24.7 µM | 25.4 µM and > 100 µM
Clc1ccc2nc(C3CCOCC3)n(Cc3ccc4c(c3)CNC4)c2c1 | > 99.5 µM | > 100 µM
C=CC[C@H](Nc1cccc(C2(C(=O)O)CCC2)c1)c1cc(Cl)cc(NC(=O)OCc2ccccc2)c1 | 16.7 µM | 17.2 µM
CC(C)c1nc2cc(Cl)ccc2n1Cc1ccc(-c2nn[nH]n2)cc1 | > 99.5 µM | > 100 µM
c1ccc2c(Cc3ccc(-c4nnn[nH]4)cc3)c[nH]c2c1 | > 99.5 µM | > 100 µM
Nc1ccc(NC(=O)c2cc(Cl)cc3[nH]ncc23)cn1 | > 99.5 µM | > 100 µM
O=C(Nc1ccc2c(c1)C[C@H](O)C2)c1cc(Cl)cc2[nH]ncc12 | > 99.5 µM | > 100 µM
CNc1c(-c2cc(Cl)cc(C3CC3)c2)nc2cc(C(=O)O)ccn12 | > 99.5 µM | > 100 µM
O=C(O)c1nn(-c2ccccc2)cc1Cc1c[nH]c2ccc(Cl)cc12 | 56.5 µM | 61 µM
Cc1c(C(=O)Nc2cc(C#N)c3ccccc3n2)cc(C2CC2)n1C | > 99.5 µM | > 100 µM
O=C(Nc1cc(Cl)cc(-c2cc(NCc3ccccc3)c(C(=O)O)cn2)c1)OCc1ccccc1 | 7.58 µM | 5.35 µM
CNc1c(-c2cc(Cl)cc(C3CC3)c2)nc2cccc(C(=O)O)n12 | > 99.5 µM | > 100 µM
N#Cc1cccc(C[C@H](O)c2cc(Cl)cc(NC(=O)OCc3ccccc3)c2)c1 | > 99.5 µM | > 100 µM
O=C(Nc1ccc(C2CCNCC2)cc1)c1cc(Cl)cc2[nH]ncc12 | > 99.5 µM | > 100 µM
Cc1cc(-c2ccc3[nH]c(C(=O)O)cc3c2)c2cc[nH]c(=O)c2c1 | > 99.5 µM | > 100 µM
O=C(O)c1ccc(Cc2c[nH]c3ccc(Cl)cc23)cc1 | > 99.5 µM | > 100 µM
Cn1cc(-c2cc(CN)cc([C@@H]3C[C@H]3c3cc(Cl)cc(NC(=O)OCc4ccccc4)c3)c2)cn1 | 42 µM | 51 µM
